Reference: US20180085371A1, “COMBINATION OF PANOBINOSTAT AND RUXOLITINIB IN THE TREATMENT OF CANCER SUCH AS A MYELOPROLIFERATIVE NEOPLASM” (Novartis AG, priority 2011, published 2018)

Tested on: p-STAT5
Assay: PD marker p-STAT5 by IHC in spleen and bone marrow
Format: in vivo, mouse
Conditions: Compound A 60 mg/kg single agent or with Compound B 8 mg/kg
Procedure: The p-STAT5 PD marker of Compound A and Acetylated Histone H3 PD marker of Compound B were assessed in spleen and bone marrow. Briefly, the spleen was removed in total, weighed and placed on a dissection tray. The spleen was cut transverse in two halves and two equal pieces were taken from the middle parts using a scalpel. Spleen pieces were not allowed to exceed 3-4 mm in thickness. Spleen pieces were transferred into labeled histocassettes and immersion-fixed in neutral buffered formalin (NBF) 10% (v/v) at room temperature (pH 6.8-7.2) (J.T. Baker, Medite, Switzerland). Fixative volume was at least tenfold in excess compared to tissue volume. […]
For histological evaluation, BM cellularity was evaluated as hypercellularity (3+), normocellularity (2+), and hypocellularity (1+). Splenic architecture was evaluated as destroyed (1+) or preserved (0). Presence of myeloid, erythroid and adipocytes cells was evaluated as 0, 1+, 2+, 3+ based on cellularity. […] Whole slide automated quantitative assessment of p-STAT5-positive and -negative cell nuclei were performed using Definiens eCognition software (eCognition version XD 1.5, Definiens AG, Germany). The results were expressed as percent of positive p-STAT5 nuclei out of total nuclei. Staining of acetylated histone H3 was scored as 1+, 2+, 3+ based on staining intensity and number of positive cells.

N#CC[C@H](C1CCCC1)n1cc(-c2ncnc3[nH]ccc23)cn1 [Compound A, (R)-3-(4-(7H-pyrrolo[2,3-d]pyrimidin-4-yl)-1H-pyrazol-1-yl)-3-cyclopentylpropanenitrile]
p-STAT5 PD marker (IHC): clear reduction
